Molecular target: T1, colon K^+-ATPase (Oryctolagus cuniculus, UniProt Q9TV52)
T1 construct: Apical brush-border membranes were prepared from rabbit descending colon epithelium; from tissue; host or cells: rabbit descending colon epithelium, apical brush-border membrane fraction (Percoll gradient)
Assay: Inhibition of colon K+-ATPase by acid decomposed omeprazole (Pi liberated from ATP, apical brush-border membranes of descending colon)
Format: biochemical, rabbit
Design: activity of the colonic K^+-ATPase enzyme: dose or concentration left out as unconfirmed
Method: In order to evaluate the inhibitory effect on colonic K^+-ATPase of the substituted benzimidazoles with the general formula I, we have tested one compound, namely omeprazole on an enzyme preparation from the descending colon of the rabbit (cf. below).
In the case of omeprazole the most efficient way to form the active degradation products is to decompose it in acid solution. Thus, omeprazole was decomposed in acid before it was added to the enzyme.
In order to isolate and characterize the ouabain insensitive potassium- stimulated ATPase from rabbit descending colon the following preparation was made.
Apical brush-border membranes were prepared from rabbit descending colon epithelium, by the method of Gustin M.C., and Goodman D.B.P., J. Biol. Chem. 256, 10651-10656 (1981), with some modifications.
Two albino male rabbits, weighing 2-3 kg, were killed by injection of mebumal into the ear vein. A section of colon, 30-35 cm in length, measured from rectum, was removed, rinsed free of its content with icecold 0.15 M NaCl and everted over a glassrod. The tissue was then divided in two pieces. These everted segments were tied at one end, filled with an icecold buffer containing 30 mM NaCl, 5mM Na3EDTA and 8 mM Hepes/Tris pH 7.6, using a 20 ml syringe without a needle, until they became distended, at which point the other end was tied. The intestines were transferred to a 500 ml centrifuge tube containing the same cold pH 7.6 buffer. The tube was placed in an icebox, which was shaken for 2 hours at 260 osc./min. Then the incubation medium was filtered through a nylon net of 200 µm mesh, to remove debris.
Sedimentation of epithelial cells was performed by centrifugation at 500xg for 10 minutes at 4°C, in a Beckman J2-21 centrifuge. The pelleted cells were resuspended in 250 ml of a solution containing 1mM Na3EDTA, adjusted to pH 8.3 with HC1 at 4°C, just before use. The cells were then disrupted, by a 28 second homogenization in a Waring Blendor. The resulting homogenate was centrifuged for 10 minutes at 4°C with a centrifugal force of 750xg in a Beckman J2-21 centrifuge with a JA-17 rotor, in order to sediment brush-borders. Pellets were combined, resuspended in 40 ml of the medium containing 1mM Na3EDTA and recentrifuged as described above. The brush-border pellet (P2) was resuspended in 33.3 ml of the same medium, 2.7 ml density gradient medium (Percoll, Pharmacia) was added by mixing. The Percoll medium was allowed to generate a density gradient during 22 minutes at 40 OOOxg in a Beckman J2-21 centrifuge, in which the membranes sedimented into bands. Nine fractions (Gl-G9) of 4 ml each, were carefully removed from the gradient with a Pasteur-pipette. The fractions were subjected to centrifugation in a Kontron TGA-65 centrifuge with a TST 60 swing-out rotor at 50 000 rpm for 45 minutes, to sediment the Percoll. The material collected on the top of the Percoll pellet was homogenized by a glass-teflon homogenizer with 5-10 up-down strokes at about 1500 rpm.
ATPase activity was determined as the amount of Pi (free phosphate) liberated from ATP by the enzyme per unit of time.
The assay medium contained 2mM ATP, 2mM MgCl2, 18.4 mM Pipes/Tris pH 7.4 and membrane protein in the presence or absence of 10 mM KC1 in a final volume of 1 ml. In some experiments, 10^-5 M of the specific Na^+,K^+-ATPase inhibitor ouabain was present. The enzyme Na^+,K^+-ATPase is responsible for the active transport of Na^+ out from the cell into the plasma as well as for the transport of K^+ into the cell from the plasma. Unless otherwise mentioned, the preparation was preincubated with ouabain on ice for 10 minutes before start of the reaction, which was initiated with ATP, mixed and incubated for suitable time at 37°C. The reaction was stopped by the addition of 1 ml icecold 12 per cent perchloric acid, containing 3.6 per cent ammoniummolybdate. […]

T1 sequence (Q9TV52 whole entry, other chains not shown): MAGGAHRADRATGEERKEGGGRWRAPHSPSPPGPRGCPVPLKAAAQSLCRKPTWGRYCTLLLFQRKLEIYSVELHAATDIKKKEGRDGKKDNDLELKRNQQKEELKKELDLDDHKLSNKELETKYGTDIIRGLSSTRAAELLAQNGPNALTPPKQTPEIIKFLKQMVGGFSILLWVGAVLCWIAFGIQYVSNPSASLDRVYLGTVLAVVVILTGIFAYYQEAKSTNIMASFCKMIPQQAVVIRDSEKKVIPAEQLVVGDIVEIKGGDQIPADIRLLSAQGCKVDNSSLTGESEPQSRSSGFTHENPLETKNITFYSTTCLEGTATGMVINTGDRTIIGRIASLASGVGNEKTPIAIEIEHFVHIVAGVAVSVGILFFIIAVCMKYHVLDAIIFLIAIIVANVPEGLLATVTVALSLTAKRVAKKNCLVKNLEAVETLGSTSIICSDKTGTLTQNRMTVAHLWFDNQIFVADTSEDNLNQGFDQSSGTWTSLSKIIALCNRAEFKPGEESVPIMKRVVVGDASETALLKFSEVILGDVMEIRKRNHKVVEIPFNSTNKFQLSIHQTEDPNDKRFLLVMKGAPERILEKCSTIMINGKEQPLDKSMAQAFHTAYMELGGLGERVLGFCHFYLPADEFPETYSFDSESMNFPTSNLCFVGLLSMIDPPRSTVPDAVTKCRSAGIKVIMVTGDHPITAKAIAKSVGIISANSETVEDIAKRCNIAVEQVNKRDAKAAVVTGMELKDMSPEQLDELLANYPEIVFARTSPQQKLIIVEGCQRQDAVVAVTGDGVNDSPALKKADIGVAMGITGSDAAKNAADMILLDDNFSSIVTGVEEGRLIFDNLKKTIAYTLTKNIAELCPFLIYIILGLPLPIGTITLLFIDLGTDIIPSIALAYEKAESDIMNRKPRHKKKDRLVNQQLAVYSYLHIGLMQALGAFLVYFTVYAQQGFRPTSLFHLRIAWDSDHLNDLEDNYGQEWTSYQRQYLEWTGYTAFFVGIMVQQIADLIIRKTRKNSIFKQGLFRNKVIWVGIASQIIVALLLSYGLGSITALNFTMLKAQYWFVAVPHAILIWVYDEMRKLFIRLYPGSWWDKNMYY

`COc1ccc2[nH]c([S+]([O-])Cc3ncc(C)c(OC)c3C)nc2c1` (stereo not drawn) [omeprazole] was tested, and the remaining activity at 1 µM (Initial concentration of omeprazole in the break-down mixture 1.0 µM, omeprazole decomposed at pH 5.0, 120 minutes, 37°C, membranes incubated 10 minutes at 37°C, read-out: Remaining enzyme activity % Mean value ± S.D.) was 100 ± 5.9%, the remaining activity at 2.5 µM (Initial concentration of omeprazole in the break-down mixture 2.5 µM, omeprazole decomposed at pH 5.0, 120 minutes, 37°C, membranes incubated 10 minutes at 37°C, read-out: Remaining enzyme activity % Mean value ± S.D.) was 72.4 ± 6% and the remaining activity at 5 µM (Initial concentration of omeprazole in the break-down mixture 5.0 µM, omeprazole decomposed at pH 5.0, 120 minutes, 37°C, membranes incubated 10 minutes at 37°C, read-out: Remaining enzyme activity % Mean value ± S.D.) was 31.9 ± 6.7%. The remaining activity at 7.5 µM (Initial concentration of omeprazole in the break-down mixture 7.5 µM, omeprazole decomposed at pH 5.0, 120 minutes, 37°C, membranes incubated 10 minutes at 37°C, read-out: Remaining enzyme activity % Mean value ± S.D.) was 18.6 ± 5.5%, the remaining activity at 10 µM (Initial concentration of omeprazole in the break-down mixture 10.0 µM, omeprazole decomposed at pH 5.0, 120 minutes, 37°C, membranes incubated 10 minutes at 37°C, read-out: Remaining enzyme activity % Mean value ± S.D.) was 5.2 ± 3.2% and the “activity of the colonic K^+-ATPase enzyme” value (mixture (acid decomposed omeprazole)) was “almost completely inhibits”.
